Source: patent US20190175671A1, “MICRORNA 22 REGULATORS COMPOSITIONS AND METHODS AND USES THEREOF” (priority 2017, published 2019)

Key:
microRNA 22 = conditions: pancreatic cancer cells; cited from earlier work
MIR22HG = experiment: Expression of long non-coding RNA MIR22HG
[1] = tested on: Interferon Regulatory Factor 9; conditions: cited from earlier work

## COc1cc(/C=C/C(=O)CC(=O)/C=C/c2ccc(O)c(OC)c2)ccc1O [curcumin, diferuloylmethane]
microRNA 22
  expression of microRNA 22: upregulation

## CC(NCCC(c1ccccc1)c1ccccc1)c1ccccc1 (stereo not drawn) [Fendiline]
MIR22HG
  expression of lncRNA MIR22HG: upregulates

## CC(=O)Nc1ccc(O)cc1 [Acetaminophen]
[1]
  effect on IRF9: inhibitor
